Data: paper PMC4448979 (Pharmacology Research & Perspectives, 2015)

Legend:
Format in all cases: cell-based
[1] = target: T1, human P2X7 receptor (HEK-hP2X7) (Homo sapiens, UniProt Q99572); test: YoPro1 dye uptake, fluorescence plate reader; settings: agonist; HEK-hP2X7 cells
T1 sequence (Q99572 1-595): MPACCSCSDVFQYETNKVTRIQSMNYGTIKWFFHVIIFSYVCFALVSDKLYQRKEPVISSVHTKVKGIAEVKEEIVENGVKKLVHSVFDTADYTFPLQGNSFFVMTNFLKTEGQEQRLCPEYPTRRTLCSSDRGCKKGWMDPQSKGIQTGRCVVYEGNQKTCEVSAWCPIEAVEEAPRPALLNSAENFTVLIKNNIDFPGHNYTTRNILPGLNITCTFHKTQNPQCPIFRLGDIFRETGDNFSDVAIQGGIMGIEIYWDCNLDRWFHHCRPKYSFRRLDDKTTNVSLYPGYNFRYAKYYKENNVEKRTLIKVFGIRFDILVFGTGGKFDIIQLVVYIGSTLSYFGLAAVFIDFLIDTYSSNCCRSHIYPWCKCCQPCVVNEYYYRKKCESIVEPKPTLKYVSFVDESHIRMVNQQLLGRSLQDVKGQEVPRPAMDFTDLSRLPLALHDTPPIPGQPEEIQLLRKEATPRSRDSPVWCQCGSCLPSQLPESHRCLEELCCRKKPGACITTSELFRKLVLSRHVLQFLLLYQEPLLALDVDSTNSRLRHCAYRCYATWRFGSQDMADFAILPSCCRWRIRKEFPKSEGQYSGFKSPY

[2] = target: T1, human P2X7 receptor (HEK-hP2X7); test: cytosensor, cell impedance
[3] = target: T1, human P2X7 receptor (HEK-hP2X7); test: YoPro1 dye uptake, fluorescence plate reader
human P2X4 (1321N1) = target: T2, human P2X4 (1321N1) (Homo sapiens, UniProt Q99571); test: Fluo-4 calcium flux, fluorescence plate reader; settings: 1321-N1, read-out: decrease in remaining activity at 10 μmol/L
T2 sequence (Q99571 1-388): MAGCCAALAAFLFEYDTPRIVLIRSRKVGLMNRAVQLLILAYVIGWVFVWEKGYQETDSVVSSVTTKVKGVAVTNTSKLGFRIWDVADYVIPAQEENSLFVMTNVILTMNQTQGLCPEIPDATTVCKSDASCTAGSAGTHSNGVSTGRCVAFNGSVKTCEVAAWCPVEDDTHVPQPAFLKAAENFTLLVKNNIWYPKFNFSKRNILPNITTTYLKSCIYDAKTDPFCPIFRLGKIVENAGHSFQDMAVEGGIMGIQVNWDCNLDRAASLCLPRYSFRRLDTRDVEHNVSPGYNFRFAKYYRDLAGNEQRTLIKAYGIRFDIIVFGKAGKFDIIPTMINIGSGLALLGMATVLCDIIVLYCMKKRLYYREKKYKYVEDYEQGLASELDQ

[4] = target: T3, P2X7 receptor of mouse microglia BV2 cells (Mus musculus, UniProt Q9Z1M0); test: whole-cell patch clamp; settings: antagonist; 100 μmol/L BzATP; -70 mV, room temperature, pH 7.4
T3 sequence (Q9Z1M0 1-595): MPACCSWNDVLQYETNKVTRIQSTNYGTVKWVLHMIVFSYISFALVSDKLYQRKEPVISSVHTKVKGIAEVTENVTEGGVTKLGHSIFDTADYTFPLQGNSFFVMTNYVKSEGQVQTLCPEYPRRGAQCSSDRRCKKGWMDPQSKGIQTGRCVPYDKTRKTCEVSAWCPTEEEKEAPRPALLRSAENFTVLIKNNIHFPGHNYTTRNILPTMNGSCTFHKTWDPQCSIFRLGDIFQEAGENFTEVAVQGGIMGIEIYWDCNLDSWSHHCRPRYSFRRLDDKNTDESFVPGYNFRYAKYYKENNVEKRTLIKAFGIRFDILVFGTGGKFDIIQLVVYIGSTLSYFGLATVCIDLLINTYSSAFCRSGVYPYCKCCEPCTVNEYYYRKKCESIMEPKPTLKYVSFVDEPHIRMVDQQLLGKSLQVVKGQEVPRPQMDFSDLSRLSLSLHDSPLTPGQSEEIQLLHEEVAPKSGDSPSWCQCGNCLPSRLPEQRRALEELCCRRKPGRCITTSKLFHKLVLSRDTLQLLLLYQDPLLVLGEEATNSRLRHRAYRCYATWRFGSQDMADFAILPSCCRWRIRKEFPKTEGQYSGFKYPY

Nc1ncnc2c1ncn2[C@@H]1O[C@H](COP(=O)(O)OP(=O)(O)OP(=O)(O)O)[C@@H](O)[C@H]1O [ATP]
YoPro1 dye uptake, fluorescence plate reader [1]: confirmed using the YoPro1 uptake assay upon stimulation of the target cells with ATP

Nc1ncnc2c1ncn2[C@@H]1O[C@H](COP(=O)(O)OP(=O)(O)OP(=O)(O)O)[C@@H](OC(=O)c2ccc(C(=O)c3ccccc3)cc2)[C@H]1O [BzATP, 2′, 3′–O–(4-benzoylbenzoyl)–ATP]
EC50 [2]: 9600 ± 1800 nM

O=C(NCC12CC3CC(CC(C3)C1)C2)c1cc(CCCNCCCO)ccc1Cl [AZD9056]
IC50 [3]: 11.2 nM
remaining activity at 10 µM (human P2X4 (1321N1)): 27%
IC50 [4]: 1000 to 3000 nM
